# From ChEMBL document CHEMBL4190322, “Structure-based development of novel triazoles and related thiazolotriazoles as anticancer agents and Cdc25A/B phosphatase inhibitors. Synthesis, in vitro biological evaluation, molecular docking and in silico ADME-T studies” (Eur J Med Chem, 2017)
# Active and inactive are the calls of the source. The calls are words filed in the database; no cut-off is given here.
# Assays:
# Format in all cases: functional
# [1] = system: U-251; test: Growth inhibition of human U251 cells at 10 uM after 48 hrs by SRB assay relative to control; settings: U-251, 48 h, read-out: GI
# [2] = system: MDA-MB-468; test: Growth inhibition of human MDA-MB-468 cells at 10 uM after 48 hrs by SRB assay relative to control
# [3] = system: LOX IMVI; test: Growth inhibition of human LOXIMVI cells at 10 uM after 48 hrs by SRB assay relative to control; settings: read-out: GI
# [4] = system: Hs-578T; test: Growth inhibition of human Hs 578T cells at 10 uM after 48 hrs by SRB assay relative to control
# [5] = system: OVCAR-8; test: Growth inhibition of human OVCAR8 cells at 10 uM after 48 hrs by SRB assay relative to control
# [6] = system: CCRF-CEM; test: Growth inhibition of human CCRF-CEM cells at 10 uM after 48 hrs by SRB assay relative to control; settings: read-out: GI
# [7] = system: K562; test: Growth inhibition of human K562 cells at 10 uM after 48 hrs by SRB assay relative to control; settings: K562, 48 h, read-out: GI
# [8] = system: UACC-62; test: Growth inhibition of human UACC62 cells at 10 uM after 48 hrs by SRB assay relative to control
# [9] = system: HOP-62; test: Growth inhibition of human HOP62 cells at 10 uM after 48 hrs by SRB assay relative to control; settings: for inhibition of growth at 10 µM: HOP-62, 48 h, read-out: GI
# [10] = system: Malme-3M; test: Growth inhibition of human MALME-3M cells at 10 uM after 48 hrs by SRB assay relative to control
# [11] = system: NCI-H226; test: Growth inhibition of human NCI-H226 cells at 10 uM after 48 hrs by SRB assay relative to control; settings: for inhibition of growth at 10 µM: NCI-H226, 48 h, read-out: GI
# [12] = system: HL-60; test: Growth inhibition of human HL60 cells at 10 uM after 48 hrs by SRB assay relative to control
# [13] = system: NCI-H23; test: Growth inhibition of human NCI-H23 cells at 10 uM after 48 hrs by SRB assay relative to control; settings: NCI-H23, 48 h, read-out: GI
# [14] = system: SK-OV-3; test: Growth inhibition of human SKOV3 cells at 10 uM after 48 hrs by SRB assay relative to control; settings: SK-OV-3, 48 h, read-out: GI
# [15] = system: UACC-257; test: Growth inhibition of human UACC257 cells at 10 uM after 48 hrs by SRB assay relative to control
# [16] = system: A549; test: Growth inhibition of human A549 cells at 10 uM after 48 hrs by SRB assay relative to control; settings: A549, 48 h, read-out: GI
# [17] = system: RXF 393; test: Growth inhibition of human RXF393 cells at 10 uM after 48 hrs by SRB assay relative to control
# [18] = system: KM12; test: Growth inhibition of human KM12 cells at 10 uM after 48 hrs by SRB assay relative to control; settings: KM12, 48 h, read-out: GI
# [19] = system: OVCAR-3; test: Growth inhibition of human OVCAR3 cells at 10 uM after 48 hrs by SRB assay relative to control
# [20] = system: HT-29; test: Growth inhibition of human HT-29 cells at 10 uM after 48 hrs by SRB assay relative to control
# [21] = system: SK-MEL-5; test: Growth inhibition of human SK-MEL-5 cells at 10 uM after 48 hrs by SRB assay relative to control; settings: for inhibition of growth at 10 µM: SK-MEL-5, 48 h, read-out: GI
# [22] = system: SR; test: Growth inhibition of human SR cells at 10 uM after 48 hrs by SRB assay relative to control; settings: read-out: GI
# [23] = system: NCI/ADR-RES; test: Growth inhibition of human NCI/ADR-RES cells at 10 uM after 48 hrs by SRB assay relative to control; settings: read-out: GI
# [24] = system: HOP-92; test: Growth inhibition of human HOP92 cells at 10 uM after 48 hrs by SRB assay relative to control; settings: HOP-92, 48 h, read-out: GI
# [25] = system: MOLT-4; test: Growth inhibition of human MOLT4 cells at 10 uM after 48 hrs by SRB assay relative to control; settings: MOLT-4, 48 h, read-out: GI
# [26] = system: A498; test: Growth inhibition of human A498 cells at 10 uM after 48 hrs by SRB assay relative to control; settings: for inhibition of growth at 10 µM: A498, 48 h, read-out: GI
# [27] = system: SNB-19; test: Growth inhibition of human SNB19 cells at 10 uM after 48 hrs by SRB assay relative to control; settings: SNB-19, 48 h, read-out: GI
# [28] = system: UO-31; test: Growth inhibition of human UO31 cells at 10 uM after 48 hrs by SRB assay relative to control; settings: UO-31, 48 h, read-out: GI
# [29] = system: HCT-116; test: Growth inhibition of human HCT116 cells at 10 uM after 48 hrs by SRB assay relative to control
# [30] = system: MCF7; test: Growth inhibition of human MCF7 cells at 10 uM after 48 hrs by SRB assay relative to control; settings: MCF7, 48 h, read-out: GI
# [31] = system: RPMI-8226; test: Growth inhibition of human RPMI8226 cells at 10 uM after 48 hrs by SRB assay relative to control; settings: for inhibition of growth at 10 µM: RPMI-8226, 48 h, read-out: GI
# [32] = system: SF-268; test: Growth inhibition of human SF268 cells at 10 uM after 48 hrs by SRB assay relative to control; settings: for inhibition of growth at 10 µM: SF-268, 48 h, read-out: GI
# [33] = system: SNB-75; test: Growth inhibition of human SNB75 cells at 10 uM after 48 hrs by SRB assay relative to control; settings: SNB-75, 48 h, read-out: GI
# [34] = system: PC-3; test: Growth inhibition of human PC3 cells at 10 uM after 48 hrs by SRB assay relative to control; settings: PC-3, 48 h, read-out: GI
# [35] = system: 786-0; test: Growth inhibition of human 786-0 cells at 10 uM after 48 hrs by SRB assay relative to control
# [36] = system: SK-MEL-2; test: Growth inhibition of human SK-MEL-2 cells at 10 uM after 48 hrs by SRB assay relative to control; settings: for inhibition of growth at 10 µM: SK-MEL-2, 48 h, read-out: GI
# [37] = system: NCI-H522; test: Growth inhibition of human NCI-H522 cells at 10 uM after 48 hrs by SRB assay relative to control; settings: NCI-H522, 48 h, read-out: GI
# [38] = system: NCI-H322M; test: Growth inhibition of human NCI-H322M cells at 10 uM after 48 hrs by SRB assay relative to control; settings: for inhibition of growth at 10 µM: read-out: GI
# [39] = system: OVCAR-4; test: Growth inhibition of human OVCAR4 cells at 10 uM after 48 hrs by SRB assay relative to control; settings: for inhibition of growth at 10 µM: OVCAR-4, 48 h, read-out: GI
# [40] = system: CAKI-1; test: Growth inhibition of human Caki1 cells at 10 uM after 48 hrs by SRB assay relative to control; settings: CAKI-1, 48 h, read-out: GI
Compound,inhibition of growth at 10 µM [1],inhibition of growth at 10 µM [3],growth inhibition (GI) [4],inhibition of growth at 10 µM [6],inhibition of growth at 10 µM [7],growth inhibition (GI) [12],inhibition of growth at 10 µM [13],inhibition of growth at 10 µM [14],inhibition of growth at 10 µM [16],inhibition of growth at 10 µM [18],inhibition of growth at 10 µM [22],inhibition of growth at 10 µM [23],inhibition of growth at 10 µM [24],inhibition of growth at 10 µM [25],inhibition of growth at 10 µM [27],inhibition of growth at 10 µM [28],inhibition of growth at 10 µM [30],inhibition of growth at 10 µM [33],inhibition of growth at 10 µM [34],inhibition of growth at 10 µM [37],also measured
COc1ccc(Cc2nnc3sc(SCC(=O)Nc4ccc(C)cc4)nn23)cc1,6.5%,16.7%,inactive,7.47%,7.25%,inactive,3.12%,4.35%,2.5%,3.51%,7.23%,3.81%,23.8%,2.19%,3.61%,13.6%,5.79%,12%,11.5%,12.2%,"growth inhibition (GI) [2]: inactive; growth inhibition (GI) [5]: inactive; growth inhibition (GI) [8]: inactive; inhibition of growth at 10 µM [9]: 2%; growth inhibition (GI) [10]: inactive; growth inhibition (GI) [11]: inactive; growth inhibition (GI) [15]: inactive; inhibition of growth at 10 µM ([17]; RXF 393, 48 h, read-out: GI): 1.65%; growth inhibition (GI) [19]: inactive; inhibition of growth at 10 µM ([20]; HT-29, 48 h, read-out: GI): 1.67%; inhibition of growth at 10 µM [21]: 1.64%; growth inhibition (GI) [26]: inactive; growth inhibition (GI) [29]: inactive; inhibition of growth at 10 µM [31]: 1.58%; growth inhibition (GI) [32]: inactive; growth inhibition (GI) [35]: inactive; inhibition of growth at 10 µM [36]: 14.8%; inhibition of growth at 10 µM [38]: 3.14%; growth inhibition (GI) [39]: inactive; inhibition of growth at 10 µM [40]: 11.9%"
COc1ccc(Cc2nnc(SCC(=O)c3ccc(C)cc3)n2-c2ccccc2)cc1,4.09%,2%,inactive,5.01%,7.62%,inactive,7%,13.9%,17.5%,4.22%,7.61%,16.6%,14.3%,9.02%,4.85%,30.2%,14.6%,8.11%,20.7%,19%,"inhibition of growth at 10 µM ([2]; MDA-MB-468, 48 h, read-out: GI): 19.3%; inhibition of growth at 10 µM ([5]; OVCAR-8, 48 h, read-out: GI): 1.78%; inhibition of growth at 10 µM ([8]; UACC-62, 48 h, read-out: GI): 14%; inhibition of growth at 10 µM [9]: 6.7%; inhibition of growth at 10 µM ([10]; read-out: GI): 5.45%; inhibition of growth at 10 µM [11]: 2.21%; inhibition of growth at 10 µM ([15]; UACC-257, 48 h, read-out: GI): 7.67%; growth inhibition (GI) [17]: inactive; inhibition of growth at 10 µM ([19]; OVCAR-3, 48 h, read-out: GI): 4.05%; growth inhibition (GI) [20]: inactive; inhibition of growth at 10 µM [21]: 3.36%; inhibition of growth at 10 µM [26]: 26%; growth inhibition (GI) [29]: inactive; growth inhibition (GI) [31]: inactive; inhibition of growth at 10 µM [32]: 3.62%; growth inhibition (GI) [35]: inactive; inhibition of growth at 10 µM [36]: 23%; inhibition of growth at 10 µM [38]: 8.17%; inhibition of growth at 10 µM [39]: 1.87%; inhibition of growth at 10 µM [40]: 7.83%"
COc1ccc(Cc2nnc3sc(SCc4ccccc4)nn23)cc1,2.8%,15.8%,inactive,25.1%,12.4%,inactive,7.22%,1.1%,3.43%,6%,12.9%,3.11%,27.6%,11.6%,10.6%,20.6%,5.28%,11%,6%,16.8%,"growth inhibition (GI) [2]: inactive; growth inhibition (GI) [5]: inactive; growth inhibition (GI) [8]: inactive; growth inhibition (GI) [9]: inactive; growth inhibition (GI) [10]: inactive; inhibition of growth at 10 µM [11]: 14%; growth inhibition (GI) [15]: inactive; growth inhibition (GI) [17]: inactive; growth inhibition (GI) [19]: inactive; growth inhibition (GI) [20]: inactive; growth inhibition (GI) [21]: inactive; inhibition of growth at 10 µM [26]: 19.7%; inhibition of growth at 10 µM ([29]; HCT-116, 48 h, read-out: GI): 1.27%; inhibition of growth at 10 µM [31]: 2.01%; inhibition of growth at 10 µM [32]: 2.02%; inhibition of growth at 10 µM ([35]; 786-0, 48 h, read-out: GI): 6.46%; growth inhibition (GI) [36]: inactive; growth inhibition (GI) [38]: inactive; inhibition of growth at 10 µM [39]: 8.58%; inhibition of growth at 10 µM [40]: 5.66%"
